Results taken from paper PMC10272180, “Ancient medicinal plant rosemary contains a highly efficacious and isoform-selective KCNQ potassium channel opener” (Communications Biology, 2023).

What was measured:
[1] = target: KCNQ2 (Homo sapiens, UniProt O43526); test: TEVC of KCNQ2 homomers expressed in Xenopus laevis oocytes; type: cell-based
Text: (§1) We generated cRNA transcripts encoding human KCNQ1, 2, 3, and 5 (wild-type and mutant) by in vitro transcription using the mMessage mMachine kit (Thermo Fisher Scientific, Waltham, MA, USA) according to manufacturer’s instructions, after vector linearization, from cDNA sub-cloned into expression vectors (pTLNx and pXOOM) incorporating Xenopus laevis β-globin 5’ and 3’ UTRs flanking the coding region to enhance translation and cRNA stability. Mutant KCNQ cDNAs were generated by Genscript (Piscataway, NJ, USA) and cRNAs made as above. We injected defolliculated stage V and VI Xenopus laevis oocytes (Xenoocyte, Dexter, MI, USA) with KCNQ cRNAs (2–10 ng) and incubated the oocytes at 16 °C in ND96 oocyte storage solution containing penicillin and streptomycin, with daily washing, for 2–4 days prior to two-electrode voltage-clamp (TEVC) recording.
We performed TEVC at room temperature using an OC-725C amplifier (Warner Instruments, Hamden, CT, USA) and pClamp10 software (Molecular Devices, Sunnyvale, CA, USA) 2–4 days after cRNA injection. We placed oocytes in a small-volume oocyte bath (Warner) and viewed them with a dissection microscope for cellular electrophysiology. We sourced chemicals from Sigma-Aldrich (St. Louis, MO, USA) and Combi-Blocks (San Diego, CA, USA). We studied effects of Salvia rosmarinus extracts and of compounds, solubilized directly in bath solution (in mM): 96 NaCl, 4 KCl, 1 MgCl2, 1 CaCl2, 10 HEPES (pH 7.6). We introduced extracts or compounds into the oocyte recording bath by gravity perfusion at a constant flow of 1 ml per minute for 3 min prior to recording. Pipettes were of 1-2 MΩ resistance when filled with 3 M KCl. […] We analyzed data using Clampfit (Molecular Devices) and Graphpad Prism software (GraphPad, San Diego, CA, USA), stating values as mean ± SEM. We plotted raw or normalized tail currents versus prepulse voltage and fitted with a single Boltzmann function:1 g=(A1−A2)/1+exp[V1/2−V/Vs]y+A2 where g is the normalized tail conductance, A1 is the initial value at -∞, A2 is the final value at +∞, V1/2 is the half-maximal voltage of activation and Vs the slope factor. We fitted activation and deactivation kinetics with single exponential functions.

[2] = target: T1, KCNQ2/5 (Homo sapiens, UniProt O43526+Q9NR82); test: TEVC of KCNQ2/5 heteromers expressed in Xenopus laevis oocytes; type: cell-based
T1 construct: expressed in transfected cells; host or cells: Xenopus laevis oocytes co-injected with cRNAs
Text: as §1
(§2) We performed TEVC at room temperature using an OC-725C amplifier (Warner Instruments, Hamden, CT, USA) and pClamp10 software (Molecular Devices, Sunnyvale, CA, USA) 2–4 days after cRNA injection. We placed oocytes in a small-volume oocyte bath (Warner) and viewed them with a dissection microscope for cellular electrophysiology. We sourced chemicals from Sigma-Aldrich (St. Louis, MO, USA) and Combi-Blocks (San Diego, CA, USA). We studied effects of Salvia rosmarinus extracts and of compounds, solubilized directly in bath solution (in mM): 96 NaCl, 4 KCl, 1 MgCl2, 1 CaCl2, 10 HEPES (pH 7.6). We introduced extracts or compounds into the oocyte recording bath by gravity perfusion at a constant flow of 1 ml per minute for 3 min prior to recording. Pipettes were of 1-2 MΩ resistance when filled with 3 M KCl. We recorded currents in response to voltage pulses between −120 mV and +40 mV at 10 mV intervals from a holding potential of −80 mV, to yield current-voltage relationships and examine activation kinetics. We analyzed data using Clampfit (Molecular Devices) and Graphpad Prism software (GraphPad, San Diego, CA, USA), stating values as mean ± SEM. We plotted raw or normalized tail currents versus prepulse voltage and fitted with a single Boltzmann function:1 g=(A1−A2)/1+exp[V1/2−V/Vs]y+A2 where g is the normalized tail conductance, A1 is the initial value at -∞, A2 is the final value at +∞, V1/2 is the half-maximal voltage of activation and Vs the slope factor. We fitted activation and deactivation kinetics with single exponential functions.

[3] = target: T2, KCNQ2/3/5 (Homo sapiens, UniProt O43525+O43526+Q9NR82); test: TEVC of KCNQ2/3/5 heteromers expressed in Xenopus laevis oocytes; type: cell-based
T2 construct: expressed in transfected cells; host or cells: Xenopus laevis oocytes co-injected with cRNAs (1:1:1 according to the authors' reply)
Text: as §1, §2

[4] = target: KCNQ3*-M240A (Homo sapiens, UniProt O43525, A315T/M240A); test: TEVC of mutant KCNQ3*-M240A in oocytes; type: cell-based; conditions: 100 µM
Text: as §1
as §2, with “We plotted raw or normalized tail currents versus prepulse voltage and fitted with a single Boltzmann function:1 g=(A1−A2)/1+exp[V1/2−V/Vs]y+A2 where g is the normalized tail conductance, A1 is the initial value at -∞, A2 is the final value at +∞, V1/2 is the half-maximal voltage of activation and Vs the slope factor. We fitted activation and deactivation kinetics with single exponential functions.” left out

[5] = target: KCNQ3*-G244A (Homo sapiens, UniProt O43525, A315T/G244A); test: TEVC of mutant KCNQ3*-G244A in oocytes; type: cell-based; conditions: 100 µM
Text: as §1
as §2, with “We plotted raw or normalized tail currents versus prepulse voltage and fitted with a single Boltzmann function:1 g=(A1−A2)/1+exp[V1/2−V/Vs]y+A2 where g is the normalized tail conductance, A1 is the initial value at -∞, A2 is the final value at +∞, V1/2 is the half-maximal voltage of activation and Vs the slope factor. We fitted activation and deactivation kinetics with single exponential functions.” left out

[6] = tested on: GABAA receptor; set-up: method as in PMID 1378214; conditions: rat brain membranes in vitro; cited from earlier work
[7] = tested on: mice; conditions: acute toxicity; cited from earlier work

CC(C)c1cc2c(c(O)c1O)[C@@]1(C(=O)O)CCCC(C)(C)[C@@H]1CC2 [Carnosic acid, carnosic acid]
V0.5 Normalized tail current ([1]; 0.1 µM): -41.03 ± 1.43 mV
V0.5 Normalized tail current ([1]; 1 µM): -44.14 ± 0.95 mV
V0.5 Normalized tail current ([1]; 3 µM): -46.74 ± 0.85 mV
V0.5 Normalized tail current ([1]; 10 µM): -45.67 ± 0.73 mV
V0.5 Normalized tail current ([1]; 30 µM): -45.20 ± 0.88 mV
V0.5 Normalized tail current ([1]; 100 µM): -43.10 ± 0.64 mV
activity across the concentration range tested ([1]; 0.1-100 µM): only weakly active
V0.5 Normalized tail current ([2]; 0.1 µM): -40.58 ± 1.11 mV
V0.5 Normalized tail current ([2]; 1 µM): -44.54 ± 0.73 mV
V0.5 Normalized tail current ([2]; 3 µM): -47.07 ± 0.55 mV
V0.5 Normalized tail current ([2]; 10 µM): -46.44 ± 0.68 mV
V0.5 Normalized tail current ([2]; 30 µM): -45.89 ± 0.76 mV
V0.5 Normalized tail current ([2]; 100 µM): -46.50 ± 0.97 mV
EC50 ([2]; EC50 EM): 4760 ± 340 nM
EC50 ([2]; EC50 V0.5 Activation): 740 ± 120 nM
V0.5 Normalized tail current ([3]; 0.1 µM): -43.51 ± 1.17 mV
V0.5 Normalized tail current ([3]; 1 µM): -47.43 ± 0.94 mV
V0.5 Normalized tail current ([3]; 3 µM): -49.89 ± 0.88 mV
V0.5 Normalized tail current ([3]; 10 µM): -52.31 ± 0.77 mV
V0.5 Normalized tail current ([3]; 30 µM): -54.68 ± 0.89 mV
V0.5 Normalized tail current ([3]; 100 µM): -57.42 ± 1.03 mV
EC50 ([3]; EC50 EM): 3130 ± 440 nM
EC50 ([3]; EC50 V0.5 Activation): 2020 ± 440 nM
Slope [4]: 17.31 ± 1.56 mV
V0.5 Normalized tail current [4]: -66.81 ± 1.80 mV
constitutive current at −120 mV [4]: 20%
Slope [5]: 11.55 ± 1.94 mV
V0.5 Normalized tail current [5]: -97.68 ± 3.18 mV
carnosic acid effects compared with KCNQ3* [5]: indistinguishably
effect on binding of [35S]tert-butylbicyclophosphorothionate [6]: decrease the binding affinity
oral LD50 [7]: 7.1 g/kg
